Laboratory results taken from patent EP0103895A2, “Novel hydroxylamine derivatives, production and use thereof” (MEIJI SEIKA KABUSHIKI KAISHA, priority 1982, dated 1984).
“And” between values parts separate entries of the source, which are not always exact repeats. Equal entries are not always repeated. Where two headings read alike, the source gives them in different places.

Assays:
[1] = tested on: fowl roundworm (As. galli); experiment: Anthelmintic test in chickens artificially infected with fowl roundworm, compound added to feed, E.P.G. and worm count up to 21st day (Test Examples A2, B2, C2, D2); format: in vivo, Ascaridia galli
[2] = tested on: swine Oesophagostomum (Oesophagostomum dentatum); experiment: Test of anthelmintic effect against swine Oesophagostomum in naturally infected pigs, E.P.G. on 7th day (Test Examples A8, B8, C8, D8); format: in vivo; settings: for anthelmintic effect: one administration of 20 mg/Kg
Description: Six pigs infected with swine Oesophagostomum (naturally infected pigs) were employed by grouping them into groups each of two pigs.
As a control, only gelatin capsules were administered orally to the two pigs.
(§1) Before administration and on the 7th day after administration, fecal matter testing was conducted to calculate the E.P.G., and the anthelmintic effect was judged by the changing of the E.P.G. to negative.

[3] = tested on: canine filaria; Dirofilaria immitis; experiment: Test of anthelmintic effect against canine filaria in naturally infected dogs, subcutaneous injection, microfilaria in blood and adult filaria at autopsy (Test Examples A10, B10, C10, D10); format: in vivo; settings: for inhibition in vivo at 20 mg/kg / inhibition in vivo at 30 mg/kg: Dirofilaria immitis, sc, 240 h
Description: Eight dogs infected with canine filaria; Diro- filaria immitis (naturally infected dogs) were employed in groups each of two dogs.
The compounds provided for tests were Compound Nos. Al, A3 and A12. 20 mg of each was administered by subcutaneous injection per Kg of body weight to each of the two dogs as a suspension in 1% "Tween 80" solution once per day for three days. As control, 3 ml of the 1% "Tween 80" solution was subcutaneously injected into two dogs once per day for three days.
Before administration and on the 10th day after administration, 20 µl of earlobe blood of each dog was sampled and examined to determine the change in microfilaria (mf) according to the concentrated smear color method, and judgement on the effect on microfilaria (mf) was made. Judgement relating to adult filaria was made on the 10th day after the last administration by killing the dogs and carrying out autopsis.
30 mg of each compound was administered by subcutaneous injection per Kg of body weight to each of the two dogs as a suspension in 1% "Tween 80" solution once per day for three days. As control, 3 ml of the 1% "Tween 80" solution was subcutaneously injected into two dogs once per day for three days.
30 mg of each compound was administered by subcutaneous injection per Kg of body weight to each of two dogs as a suspension in 1% "Tween 80" solution once per day for three days. As control, 3 ml of the 1% "Tween 80" solution was subcutaneously injected to two dogs once per day for three days.
20 mg of each compound was administered by subcutaneous injection per kg of body weight once per day for three days to each of two dogs. These compounds were administered as a suspension in 1% "Tween 80" in the case of Compound No.Dl3 and as solutions dissolved in distilled water for injection in the case of Compounds Nos. D10 and D16, respectively. As control, 3 ml of the 1% "Tween 80" solution was subcutaneously injected into two dogs once per day for three days.

[4] = tested on: Liver fluke; Fasciola hepatica (F. hepatica); experiment: Test of anthelmintic effect against rat infected experimentally with liver fluke (Test Examples A11, B11, C11, D11); format: in vivo; set-up: key to Presence or absence of fluke egg in fecal matter On 21st day after the last administration: +: indicates detection of fluke egg; -: indicates no detection; settings: for anthelmintic effect: five administrations in a dose of 50 mg/Kg each
From the text: Twenty-eight (28) rats were employed in fourteen groups each of two rats, each rat being infected with 5 metacercariae of Liver fluke; Fasciola he^patica (F.. hepatica) and confirmed to have worm eggs on the 75th day after infection according to fecal matter testing.
Judgement of the effect was made by the presence or absence of the worm gees in the fecal matter on the 21st day after the last administration and by examination according to autopsis as to whether the worm bodies were dead or alive in the liver.
The same as that in Test Example All, but eight (8) rats were employed by grouping them into groups each of two rats, each rat being infected with 5 metacercariae of liver fluke and confirmed to have fluke eggs on the 75th day after infection according to fecal matter testing.
The compounds provided for the tests were Compound Nos. Bl, B8 and B19.
The same as that in Test Example All, but six (6) rats were employed by grouping them into groups each of two rats, each rat being infected with 5 metacercariae of Fasciola hepatica and confirmed to have worm eggs on the 75th day after infection according to fecal matter testing.
The compounds provided for the tests were Compound Nos. C2 and C6.
The same as that in Test Example All, but the compounds provided for tests were Compound Nos. D14, D15 and D16.

[5] = tested on: Diphyllobothrium erinacei; experiment: Test of anthelmintic effect against Diphyllobothrium erinacei (tapeworm) in experimentally infected cats (Test Examples A5, B5, C5, D5); settings: for anthelmintic effect: 5 continuous administrations of 50 mg/Kg; for Number of worms remaining in enteron: 50 mg/Kg x 5
[6] = tested on: fowl roundworm (Ascaridia galli); experiment: Anthelmintic test in chickens artificially infected with fowl roundworm, single oral dose in gelatin capsule, worm bodies counted within 48 hours (Test Examples A1, B1, C1, D1); format: in vivo; settings: Ascaridia galli, po, 48 h, read-out: Anthelmintic effect after 48 hours; for inhibition in vivo at 15 mg/kg: 15 mg/Kg oral in gelatin capsule
Summary of the method: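 Groups of three chickens with confirmed Ascaridia galli infection given a single oral dose in gelatin capsule (10 and 20 mg/kg in A1 and B1; 30 and 50 mg/kg in C1; 15 and 30 mg/kg in D1). Worms expelled over 48 h and those remaining in the gut at necropsy counted to give anthelmintic percentage.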

[7] = tested on: canine strongyloides (Strongyloides stercoralis); experiment: Anthelmintic test against canine strongyloides in naturally infected dogs, E.P.G. on 7th day (Test Examples A4, B4, C4, D4); format: in vivo
Description: Three dogs infected with canine strongyloides (naturally infected dogs) were employed by grouping them into a group of two and a group of one.
As control, only a gelatin capsule was administered orally to the one dog.
as §1
(§2) As control, only gelatin capsules were administered orally to the one dog.
as §2

[8] = Ascaridia galli, po, 504 h, chickens, 50 ppm added to feed, worm count on 21st day, one value per chicken, read-out: Anthelmintic effect
[9] = pigs, 20 mg/Kg orally once, baseline, one value per pig, 20 mg/kg
[10] = pigs, 20 mg/Kg orally once, one value per pig
[11] = dogs, administration of 20 mg/Kg repeated three times, given as about 50% or more, read-out: anthelmintic effect against adult filaria
[12] = dogs, 20 mg/Kg x 3 subcutaneously, autopsy on 10th day after the last administration, one value per dog, 20 mg/kg
[13] = dogs, administration of 20 mg/Kg repeated three times
[14] = chicken, 30 mg/Kg oral in gelatin capsule, chickens No.1-3
[15] = chicken, 50 mg/Kg oral in gelatin capsule, chickens No.1-3
[16] = Ascaridia galli, feed or water, 504 h, chicken, 25 ppm in feed, read-out: Anthelmintic effect
[17] = Ascaridia galli, feed or water, 504 h, chicken, 50 ppm in feed, read-out: Anthelmintic effect
[18] = pig, Oesophagostomum dentatum, 20 mg/Kg, one administration
[19] = pig, Oesophagostomum dentatum, before 20 mg/Kg (baseline)
[20] = cat, 50 mg/Kg x 5, oral in gelatin capsule
[21] = cat, 50 mg/Kg x 5, oral in gelatin capsule, once per day for 5 days

C#CCN(OCC=C)C(=O)c1ccc(F)cc1 [Compound A12, N-propargyl-N-(p-fluorobenzoyl)-O-allylhydroxylamine]
inhibition in vivo at 10 ppm ([1]; Ascaridia galli, po, 504 h, chickens, 10 ppm added to feed, worm count on 21st day, one value per chicken, read-out: Anthelmintic effect): 80 to 90%
inhibition in vivo at 50 ppm [1, 8]: 100%
Change of E.P.G. Before administration [2, 9]: 2,100 E.P.G. and 1,500 E.P.G.
Change of E.P.G. 7th day [2, 10]: 0 E.P.G.
anthelmintic effect ([2]; pigs): marked anthelmintic effect
inhibition in vivo at 20 mg/kg [3, 11]: ≥ 50%
Effect on adult filaria: Number of worms killed/Total parasites [3, 12]: 13/21 and 15/26
Effect on adult filaria: Percent of worms killed [3, 12]: 62% and 58%
Number of microfilaria/20 µl On 10th day after the last administration ([3]; dogs, 20 mg/Kg x 3 subcutaneously, earlobe blood, one value per dog): 0 /20 µl
anthelmintic effect against microfilaria (mf) [3, 13]: marked anthelmintic effect
Condition of fluke body ([4]; rats, 50 mg/Kg x 5 orally, autopsy, liver, "Denatured" = fluke body is alive but a part of fluke body has changed, one value per rat): dead
Presence or absence of fluke egg in fecal matter On 21st day after the last administration ([4]; rats, 50 mg/Kg x 5 orally, one value per rat): -
Number of worm bodies remaining in enteron ([5]; cats infected with 5 plerocercoids, 50 mg/Kg x 5 times orally, autopsy ten days after administration, one value per cat): 0
Worm egg detection on 10th day after administration ([5]; cats, 50 mg/Kg x 5 times orally, one value per cat (Table A7)): -
anthelmintic effect ([5]; cats): marked anthelmintic effects

C=CCN(OCCCCC)C(C)=O [Compound B20]
inhibition in vivo at 30 mg/kg ([6]; chickens, 30 mg/Kg orally in gelatin capsule, one value per chicken (No.1-3)): 100%
inhibition in vivo at 50 mg/kg ([6]; chickens, 50 mg/Kg orally in gelatin capsule, one value per chicken (No.1-3)): 100%
inhibition in vivo at 20 ppm ([1]; Ascaridia galli, po, 504 h, chickens, 20 ppm added to feed, worm count on 21st day, one value per chicken, read-out: Anthelmintic effect): 100%
inhibition in vivo at 50 ppm [1, 8]: 100%
Change of E.P.G. Before administration [2, 9]: 1,000 E.P.G. and 1,600 E.P.G.
Change of E.P.G. 7th day [2, 10]: 0 E.P.G.
anthelmintic effect ([2]; pigs): marked anthelmintic effect

C=CCON(CC=C)C(=O)CC [Compound C2]
inhibition in vivo at 30 mg/kg [6, 14]: 100%
inhibition in vivo at 50 mg/kg [6, 15]: 100%
inhibition in vivo at 25 ppm [1, 16]: 100%
inhibition in vivo at 50 ppm [1, 17]: 100%
Change of E.P.G. 21st day ([1]; chicken, 25 ppm in feed): 0
Change of E.P.G. 21st day ([1]; chicken, 50 ppm in feed): 0
Change of E.P.G. 7th day [2, 18]: 0
Change of E.P.G. Before administration [2, 19]: 1,700 and 1,200
anthelmintic effect ([2]; pigs): marked anthelmintic effect
inhibition in vivo at 30 mg/kg ([3]; dog, 30 mg/Kg x 3, subcutaneous injection, read-out: Effect on adult filaria: Percent of worms killed): 62%
inhibition in vivo at 30 mg/kg ([3]; dogs, administration of 30 mg/Kg repeated three times, given as about 50% or more, read-out: anthelmintic effect against adult filaria): ≥ 50%
Number of microfilaria/20 µl On 10th day after the last administration ([3]; dog, 30 mg/Kg x 3, subcutaneous injection, suspension in 1% Tween 80): 0 /20 µl
Effect on adult filaria: Number of worms killed/ Total parasite ([3]; dog, 30 mg/Kg x 3, subcutaneous injection, 30 mg/kg): 5/8 and 8/13
anthelmintic effect against microfilaria (mf) ([3]; dogs, administration of 30 mg/Kg repeated three times): marked anthelmintic effect
Condition of fluke body ([4]; rat, 50 mg/Kg x 5): dead
Presence or absence of fluke egg in fecal matter On 21st day after the last administration ([4]; rat, 50 mg/Kg x 5): -
anthelmintic effect ([4]; rats): marked antihelmintic effect
Number of worm bodies remaining in enteron [5, 20]: 0
Worm egg detection on 10th day after administration [5, 21]: -
anthelmintic effect ([5]; cats): marked anthelmintic effects

C=CCON(CC=C)C(=O)c1ccc(F)cc1 [Compound C7]
inhibition in vivo at 30 mg/kg [6, 14]: 100%
inhibition in vivo at 50 mg/kg [6, 15]: 100%
inhibition in vivo at 25 ppm [1, 16]: 100%
inhibition in vivo at 50 ppm [1, 17]: 100%
Change of E.P.G. 21st day ([1]; chicken, 25 ppm in feed): 0
Change of E.P.G. 21st day ([1]; chicken, 50 ppm in feed): 0
Number of worm bodies remaining in enteron [5, 20]: 0
Worm egg detection on 10th day after administration [5, 21]: -
anthelmintic effect ([5]; cats): marked anthelmintic effects

C=CCNOCC(C)C [Compound D3]
inhibition in vivo at 30 mg/kg [6, 14]: 100%
inhibition in vivo at 25 ppm [1, 16]: 80 to 90%
inhibition in vivo at 50 ppm [1, 17]: 100%
Change of E.P.G. 7th day [2, 18]: 0
Change of E.P.G. Before administration [2, 19]: 2,200 and 1,800
anthelmintic effect ([2]; pigs): marked anthelmintic effect

C=CCNOC [Compound D9]
inhibition in vivo at 15 mg/kg ([6]; chicken, chickens No.1-3): 50 to 79%
inhibition in vivo at 30 mg/kg [6, 14]: 100%
Number of worms remaining in enteron ([5]; cat): 0
anthelmintic effect ([5]; cats): marked anthelmintic effects

C#CCNOC.Cl [Compound D16, N-propargyl-O-methylhydroxylamine hydrochloride]
inhibition in vivo at 15 mg/kg ([6]; chicken, chickens No.1-3): 100%
inhibition in vivo at 30 mg/kg [6, 14]: 100%
inhibition in vivo at 25 ppm [1, 16]: 100%
inhibition in vivo at 50 ppm [1, 17]: 100%
Change of E.P.G. 7th day ([7]; dog, Strongyloides stercoralis, 10 mg/Kg, one administration): 0
Change of E.P.G. Before administration ([7]; dog, Strongyloides stercoralis, before 10 mg/Kg (baseline), hydrochloride): 2,300 and 1,800
anthelmintic effect ([7]; dogs, one administration of 10 mg/Kg): marked anthelmintic effect
inhibition in vivo at 20 mg/kg ([3]; dog, 20 mg/Kg x 3, subcutaneous injection, read-out: Effect on adult filaria: Percent of worms killed): 55%
inhibition in vivo at 20 mg/kg [3, 11]: ≥ 50%
Number of microfilaria/20µl On 10th day after the administration ([3]; dog, 20 mg/Kg x 3, subcutaneous injection): 0 /20µl
Effect on adult filaria: Number of worms killed/ Total parasite ([3]; dog, 20 mg/Kg x 3, subcutaneous injection, hydrochloride, 20 mg/kg): 16/29 and 23/37
Number of microfilaria/20µl Before administration ([3]; dog, before 20 mg/Kg x 3 subcutaneous injection (baseline), hydrochloride): 18 /20µl and 31 /20µl
anthelmintic effect against microfilaria (mf) [3, 13]: marked anthelmintic effect
Condition of fluke bodies ([4]; rat, 50 mg/Kg x 5): dead
Presence or absence of fluke egg in fecal matter On 21st day after the last administration ([4]; rat, 50 mg/Kg x 5): -
anthelmintic effect ([4]; rats): marked anthelmintic effect
Number of worms remaining in enteron ([5]; cat): 0
anthelmintic effect ([5]; cats): marked anthelmintic effects
